Test results reported in PubChem BioAssay AID624129 (Sanford-Burnham Center for Chemical Genomics, 2012).
Calls of active or inactive are those of the source. No rule for the calls is given here.

Columns and labels:
Experiment in all cases: potency against CXCR6 with APJ panel – cell-based, beta-arrestin, DiscoveRx, uHTS hits, dose response (AID 624129)
[1] = biological target: C-X-C chemokine receptor type 6 (Homo sapiens) (UniProt O00574); conditions: CXCR6 beta-arrestin (DiscoveRx) antagonist cell assay
[2] = biological target: C-C chemokine receptor type 6 (Homo sapiens) (UniProt P51684); conditions: CXCR6 beta-arrestin (DiscoveRx) antagonist cell assay
[3] = biological target: Beta-galactosidase (Escherichia coli) (UniProt Q8VNN2); conditions: CXCR6 beta-arrestin (DiscoveRx) antagonist cell assay, b-galactosidase
[4] = biological target: Apelin receptor (Homo sapiens) (UniProt P35414); conditions: CXCR6 beta-arrestin (DiscoveRx) antagonist cell assay, APJ
[5] = CXCR6, dose range 1, mean IC50 across replicates
[6] = CXCR6, run 1, dose range 2, at 80 µM (top of the series)
[7] = CCR6, dose range 1, mean IC50 across replicates
[8] = dose range 1, mean IC50 across replicates

Chain of C-X-C chemokine receptor type 6 (Homo sapiens) (O00574 whole entry, looked up): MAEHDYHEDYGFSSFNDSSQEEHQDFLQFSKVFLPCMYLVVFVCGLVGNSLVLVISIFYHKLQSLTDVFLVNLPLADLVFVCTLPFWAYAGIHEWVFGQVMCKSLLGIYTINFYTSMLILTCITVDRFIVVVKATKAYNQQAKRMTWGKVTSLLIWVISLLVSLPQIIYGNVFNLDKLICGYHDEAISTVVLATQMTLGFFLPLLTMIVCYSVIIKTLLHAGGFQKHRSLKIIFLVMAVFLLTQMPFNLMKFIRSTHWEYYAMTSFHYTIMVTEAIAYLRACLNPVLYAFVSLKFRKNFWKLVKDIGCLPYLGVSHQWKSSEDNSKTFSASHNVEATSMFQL
Chain of Beta-galactosidase (Escherichia coli) (Q8VNN2 whole entry, looked up): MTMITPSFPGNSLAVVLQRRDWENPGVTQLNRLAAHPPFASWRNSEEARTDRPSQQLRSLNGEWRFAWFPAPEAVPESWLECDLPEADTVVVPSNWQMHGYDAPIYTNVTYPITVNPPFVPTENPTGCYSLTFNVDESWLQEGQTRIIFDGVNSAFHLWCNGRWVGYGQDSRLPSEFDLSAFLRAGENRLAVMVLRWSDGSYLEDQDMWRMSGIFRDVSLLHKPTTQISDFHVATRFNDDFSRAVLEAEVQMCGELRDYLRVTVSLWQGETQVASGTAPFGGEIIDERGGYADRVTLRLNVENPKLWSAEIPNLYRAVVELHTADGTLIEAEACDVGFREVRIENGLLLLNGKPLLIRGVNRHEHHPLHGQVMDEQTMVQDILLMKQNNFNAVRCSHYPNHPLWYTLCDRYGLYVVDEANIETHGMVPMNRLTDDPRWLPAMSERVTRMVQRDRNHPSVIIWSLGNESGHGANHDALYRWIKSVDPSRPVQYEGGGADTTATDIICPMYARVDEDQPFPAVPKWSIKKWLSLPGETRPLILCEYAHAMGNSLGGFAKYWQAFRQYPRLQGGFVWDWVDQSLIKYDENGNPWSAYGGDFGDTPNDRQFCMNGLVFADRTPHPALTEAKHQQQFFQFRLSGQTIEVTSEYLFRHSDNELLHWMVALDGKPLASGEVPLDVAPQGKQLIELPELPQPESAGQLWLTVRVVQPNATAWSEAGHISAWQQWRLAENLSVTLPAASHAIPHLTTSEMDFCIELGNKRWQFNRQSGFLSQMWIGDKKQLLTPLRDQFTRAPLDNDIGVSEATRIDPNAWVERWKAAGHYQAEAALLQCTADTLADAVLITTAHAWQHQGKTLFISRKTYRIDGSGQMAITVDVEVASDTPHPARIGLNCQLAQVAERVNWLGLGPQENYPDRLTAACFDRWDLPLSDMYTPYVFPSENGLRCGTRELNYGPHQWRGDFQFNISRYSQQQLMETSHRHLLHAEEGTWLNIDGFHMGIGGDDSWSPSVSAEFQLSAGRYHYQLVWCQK

Row | SMILES | IC50 ([1]; CXCR6, dose range 1) | IC50 [1, 5] [µM] | inhibition [1, 6] [%] | IC50 ([1]; CXCR6, run 2, dose range 1) [µM] | IC50 ([2]; CCR6, dose range 1) [µM] | IC50 [2, 7] [µM] | IC50 ([2]; CCR6, run 2, dose range 1) [µM] | IC50 ([3]; dose range 1) | IC50 [3, 8] [µM] | IC50 ([4]; dose range 1) [µM] | IC50 [4, 8] [µM] | IC50 ([4]; run 2, dose range 1) [µM] | IC50 ([4]; run 3, dose range 1) [µM] | IC50 ([1]; CXCR6, run 1, dose range 2) [µM] | IC50 ([1]; CXCR6, run 2, dose range 2) [µM] | inhibition ([1]; CXCR6, run 1, dose range 2, at 40 µM (top of the series)) [%] | activity value [1]
1 | CS(=O)(=O)c1sc(C#N)c2c1C(=O)CC(c1ccccc1)C2 (centres undefined) | inactive | 45.5 | 73.2 | 32.1 | 27.4 | 37.9 | 48.5 | > 80 µM (inactive) | > 80 | 68.7 | 68.7 | > 80 | > 80 | – | – | – | –
2 | O=C(C#Cc1ccccc1)c1ccco1 | 11.8 µM | 9.68 | – | 9.18 | 9.49 | 9.89 | 10.3 | > 80 µM (inactive) | > 80 | 16.1 | 14 | 13.1 | 12.8 | 9.59 | 8.16 | – | –
3 | Nc1cc(Cl)c2nonc2c1[N+](=O)[O-] | 11.5 µM | 8.28 | – | 7.17 | 5.46 | 7.31 | 9.16 | > 80 µM (inactive) | > 80 | 10.8 | 20.6 | 13.5 | 37.6 | 7.05 | 7.35 | – | –
4 | Cc1c(Nc2cc(Cl)c3nonc3c2[N+](=O)[O-])c(=O)n(-c2ccccc2)n1C | 3.95 µM | 3.92 | – | 4.6 | 3.16 | 3.35 | 3.55 | > 80 µM (inactive) | > 80 | 4.55 | 4.26 | 4.09 | 4.16 | 3.59 | 3.57 | – | –
5 | C=C1C(=O)c2sccc2C(c2ccc(OC)c(OC)c2)C1COC(C)=O (centres undefined) | 6.54 µM | 6.19 | – | 6.78 | 4.58 | 5.3 | 6.02 | > 80 µM (inactive) | > 80 | 7.28 | 6.69 | 6.03 | 6.75 | 5.73 | 5.7 | – | –
6 | Oc1cccc2ccc(/C=C/c3c(F)cccc3Cl)nc12 | 6.4 µM | 5.43 | – | 6.67 | 5.94 | 5.8 | 5.66 | > 80 µM (inactive) | > 80 | 6.69 | 15.4 | 11.2 | 28.2 | 3.78 | 4.85 | – | –
7 | Oc1cccc2ccc(/C=C/c3cccs3)nc12 | – | 4.43 | – | 6.87 | 3.95 | 5.65 | 7.36 | > 80 µM (inactive) | > 80 | 5.07 | 4.98 | > 80 | 4.89 | 2.77 | 3.64 | – | –
8 | O=C(C#Cc1ccccc1)c1ccc([N+](=O)[O-])cc1 | 2.67 µM | 2.62 | 131 | 2.57 | 1.46 | 1.72 | 1.98 | > 80 µM (inactive) | > 80 | 4.35 | 4.53 | 5.55 | 3.7 | – | – | – | –
9 | C=C1C(=O)C23C(O)C1CCC2C12CCCC(C)(COC(C)=O)C1C(O)C3(O)OC2 (centres undefined) | 6.64 µM | 6.29 | – | 6.24 | 5.19 | 5.59 | 6 | > 80 µM (inactive) | > 80 | 9 | 8.77 | 7.67 | 9.63 | 6.49 | 5.8 | – | –
10 | CC(=O)NC(=S)Nc1sc2c(c1C(N)=O)CCC(C)C2 (centres undefined) | > 80 µM (inactive) | > 80 | -35.8 | > 80 | – | > 80 | > 80 | > 80 µM (inactive) | > 80 | – | > 80 | > 80 | > 80 | – | – | – | –
11 | N#CC(C#N)=C1C=CC=CN1/C(=C\c1ccco1)C(=O)c1ccc(Br)cc1 | > 80 µM (inactive) | > 80 | 19.9 | > 80 | – | > 80 | > 80 | > 80 µM (inactive) | > 80 | – | > 80 | > 80 | > 80 | – | – | – | –
12 | O=[N+]([O-])c1cc(Cc2ccccc2)cc(C=Nc2ccc(N3CCOCC3)cc2)c1O | inactive | 14.5 | 93.2 | 13.1 | – | 37.4 | 37.4 | inactive | 64.7 | 15.7 | 28.9 | 33.6 | 37.4 | – | – | – | –
13 | Cc1cc(C)c2c(=O)n(CC(=O)Nc3cccc(Cl)c3C)sc2n1 | 2.68 µM | 2.42 | – | 2.16 | 1.85 | 2.69 | 3.52 | > 80 µM (inactive) | > 80 | 1.69 | 3.11 | 5.55 | 2.1 | – | – | 96.5 | –
14 | CCC(=O)OCCNc1cc(Sc2nc3ccccc3[nH]2)c2nonc2c1[N+](=O)[O-] | 4.57 µM | 5.64 | – | 6.71 | 4.73 | 4.66 | 4.58 | 27.1 µM | 27.1 | 9.49 | 7.79 | 6.65 | 7.23 | 5.85 | 5.42 | – | –
15 | Cc1ccc2c(C)ccc(O)c2n1 | 4.91 µM | 5.07 | – | 5.82 | 4.94 | 5.41 | 5.87 | > 80 µM (inactive) | > 80 | 5.26 | 5.92 | 6.22 | 6.29 | 4.36 | 5.2 | – | –
16 | O=C1C=CC2(C=C1)O[C@H](Cc1ccccc1)[C@@H](Cc1ccccc1)O2 | 8.93 µM | 8.35 | – | 7.5 | 4.44 | 4.75 | 5.06 | > 80 µM (inactive) | > 80 | 7.98 | 8.39 | 8.95 | 8.25 | 6.66 | 10.3 | – | –
17 | O=[N+]([O-])c1ccc(S(=O)Cc2ccccc2)c([N+](=O)[O-])c1 (centres undefined) | > 80 µM (inactive) | > 80 | -36.3 | > 80 | – | > 80 | > 80 | > 80 µM (inactive) | > 80 | – | > 80 | > 80 | > 80 | – | – | – | –
18 | Cc1ccnc(N2C(=O)c3cccc4c([N+](=O)[O-])ccc(c34)C2=O)c1 | 4.5 µM | 3.54 | 129 | 2.58 | 2.2 | 2.6 | 3 | > 80 µM (inactive) | > 80 | 4.63 | 5.01 | 5.47 | 4.92 | – | – | – | –
19 | COc1cccc(-n2nc(C#N)c(Cl)cc2=O)c1 | inactive | 12.6 | – | 13.7 | 6.31 | 9.54 | 12.8 | > 80 µM (inactive) | > 80 | 7.86 | 7.23 | 7.26 | 6.56 | 9.33 | 12 | – | –
20 | COc1ccc(CN2C(=O)C(Cc3ccccc3)Nc3ncnc(N4CCN(c5ccccc5)CC4)c32)cc1 (centres undefined) | 8.37 µM | 5.48 | – | 4.54 | 4.6 | 4.33 | 4.05 | 7.82 µM | 7.82 | 6.61 | 9.3 | 9.95 | 11.3 | 3.14 | 5.88 | – | –
21 | O=[N+]([O-])c1c(NCCCO)cc(Sc2nc3ccccc3s2)c2nonc12 | inactive | 14.3 | 118 | 13.5 | 8.25 | 8.81 | 9.37 | > 80 µM (inactive) | > 80 | 9.5 | 11.5 | 11.7 | 13.2 | – | – | – | –
22 | On1ccccc1=S | inactive | 17.8 | 51.2 | 17.3 | 11.5 | 27 | 42.4 | – | – | 13.2 | 17.6 | 17.5 | 22.2 | – | – | – | 80 µM (inactive)
